Laboratory results as given in the NIST ThermoML archive (doi:10.1016/j.fluid.2006.07.015).
± gives the expanded uncertainty stated by the source.

Assay: activity coefficient (dimensionless); of the first substance listed, at infinite dilution; xn = mol fraction of the nth substance listed
Settings: 101 kPa, Liquid, Chromatography, x1 = 0

Row | activity coefficient (373.15 K) | activity coefficient (388.15 K) | activity coefficient (403.15 K) | activity coefficient (418.15 K) | activity coefficient (433.15 K) | SMILES
1 | 0.418 ± 0.034 | 0.42 ± 0.034 | 0.421 ± 0.034 | 0.423 ± 0.034 | 0.425 ± 0.034 | CCCCCCCCCC [decane] + CCCCCCCCCCCCCCCCCCC(CCCCCCCCCCCCCCCCCC)CCCCC(CCCCCCCCCCCCCCCCCC)CCCCCCCCCCCCCCCCCC
2 | 0.428 ± 0.034 | 0.424 ± 0.034 | 0.417 ± 0.034 | 0.412 ± 0.034 | 0.411 ± 0.034 | C#CCCCCCC [1-octyne] + CCCCCCCCCCCCCCCCCCC(CCCCCCCCCCCCCCCCCC)CCCCC(CCCCCCCCCCCCCCCCCC)CCCCCCCCCCCCCCCCCC
3 | 0.287 ± 0.036 | 0.294 ± 0.036 | 0.296 ± 0.036 | 0.296 ± 0.036 | 0.3 ± 0.036 | C[C@H]1CC[C@@H](C)CC1 [cis-1,4-dimethylcyclohexane] + CCCCCCCCCCCCCCCCCCC(CCCCCCCCCCCCCCCCCC)CCCCC(CCCCCCCCCCCCCCCCCC)CCCCCCCCCCCCCCCCCC
4 | 0.242 ± 0.036 | 0.244 ± 0.036 | 0.242 ± 0.036 | 0.238 ± 0.036 | 0.238 ± 0.036 | C1=CCC=CC1 [1,4-cyclohexadiene] + CCCCCCCCCCCCCCCCCCC(CCCCCCCCCCCCCCCCCC)CCCCC(CCCCCCCCCCCCCCCCCC)CCCCCCCCCCCCCCCCCC
5 | 0.25 ± 0.036 | 0.251 ± 0.036 | 0.246 ± 0.036 | 0.245 ± 0.036 | 0.247 ± 0.036 | C1CCCCC1 [cyclohexane] + CCCCCCCCCCCCCCCCCCC(CCCCCCCCCCCCCCCCCC)CCCCC(CCCCCCCCCCCCCCCCCC)CCCCCCCCCCCCCCCCCC
6 | 0.258 ± 0.036 | 0.264 ± 0.036 | 0.265 ± 0.036 | 0.262 ± 0.036 | 0.264 ± 0.036 | C1CCCCCCC1 [cyclooctane] + CCCCCCCCCCCCCCCCCCC(CCCCCCCCCCCCCCCCCC)CCCCC(CCCCCCCCCCCCCCCCCC)CCCCCCCCCCCCCCCCCC
7 | 0.353 ± 0.035 | 0.356 ± 0.035 | 0.358 ± 0.035 | 0.36 ± 0.035 | 0.362 ± 0.035 | CC(C)C(C)C(C)C [2,3,4-trimethylpentane] + CCCCCCCCCCCCCCCCCCC(CCCCCCCCCCCCCCCCCC)CCCCC(CCCCCCCCCCCCCCCCCC)CCCCCCCCCCCCCCCCCC
8 | 0.397 ± 0.034 | 0.405 ± 0.034 | 0.401 ± 0.034 | 0.404 ± 0.034 | 0.401 ± 0.034 | CCCCCCc1ccccc1 [hexylbenzene] + CCCCCCCCCCCCCCCCCCC(CCCCCCCCCCCCCCCCCC)CCCCC(CCCCCCCCCCCCCCCCCC)CCCCCCCCCCCCCCCCCC
9 | 0.336 ± 0.035 | 0.338 ± 0.035 | 0.341 ± 0.035 | 0.345 ± 0.035 | 0.349 ± 0.035 | CCCCC [pentane] + CCCCCCCCCCCCCCCCCCC(CCCCCCCCCCCCCCCCCC)CCCCC(CCCCCCCCCCCCCCCCCC)CCCCCCCCCCCCCCCCCC
10 | 0.475 ± 0.033 | 0.476 ± 0.033 | 0.475 ± 0.033 | 0.476 ± 0.033 | 0.475 ± 0.033 | C=CCCCCCCCCCCCC [1-tetradecene] + CCCCCCCCCCCCCCCCCCC(CCCCCCCCCCCCCCCCCC)CCCCC(CCCCCCCCCCCCCCCCCC)CCCCCCCCCCCCCCCCCC
11 | 0.251 ± 0.036 | 0.253 ± 0.036 | 0.255 ± 0.036 | 0.252 ± 0.036 | 0.252 ± 0.036 | C1=CCCC=C1 [1,3-cyclohexadiene] + CCCCCCCCCCCCCCCCCCC(CCCCCCCCCCCCCCCCCC)CCCCC(CCCCCCCCCCCCCCCCCC)CCCCCCCCCCCCCCCCCC
12 | 0.271 ± 0.036 | 0.277 ± 0.036 | 0.279 ± 0.036 | 0.28 ± 0.036 | 0.285 ± 0.036 | C[C@@H]1CCCC[C@@H]1C [cis-1,2-dimethylcyclohexane] + CCCCCCCCCCCCCCCCCCC(CCCCCCCCCCCCCCCCCC)CCCCC(CCCCCCCCCCCCCCCCCC)CCCCCCCCCCCCCCCCCC
13 | 0.361 ± 0.035 | 0.363 ± 0.035 | 0.365 ± 0.035 | 0.367 ± 0.034 | 0.37 ± 0.03 | CCCCCCC [heptane] + CCCCCCCCCCCCCCCCCCC(CCCCCCCCCCCCCCCCCC)CCCCC(CCCCCCCCCCCCCCCCCC)CCCCCCCCCCCCCCCCCC
14 | 0.28 ± 0.036 | 0.287 ± 0.036 | 0.29 ± 0.036 | 0.288 ± 0.036 | 0.295 ± 0.036 | C[C@@H]1CCCC[C@H]1C [trans-1,2-dimethylcyclohexane] + CCCCCCCCCCCCCCCCCCC(CCCCCCCCCCCCCCCCCC)CCCCC(CCCCCCCCCCCCCCCCCC)CCCCCCCCCCCCCCCCCC
15 | 0.404 ± 0.034 | 0.406 ± 0.034 | 0.406 ± 0.034 | 0.417 ± 0.034 | 0.419 ± 0.034 | CCC#CCC [3-hexyne] + CCCCCCCCCCCCCCCCCCC(CCCCCCCCCCCCCCCCCC)CCCCC(CCCCCCCCCCCCCCCCCC)CCCCCCCCCCCCCCCCCC
16 | 0.239 ± 0.036 | 0.244 ± 0.036 | 0.243 ± 0.036 | 0.241 ± 0.036 | 0.243 ± 0.036 | C1=CCCCC1 [cyclohexene] + CCCCCCCCCCCCCCCCCCC(CCCCCCCCCCCCCCCCCC)CCCCC(CCCCCCCCCCCCCCCCCC)CCCCCCCCCCCCCCCCCC
17 | 0.337 ± 0.035 | 0.339 ± 0.035 | 0.337 ± 0.035 | 0.342 ± 0.035 | 0.343 ± 0.035 | C1C2CC3CC1CC(C2)C3 [adamantane] + CCCCCCCCCCCCCCCCCCC(CCCCCCCCCCCCCCCCCC)CCCCC(CCCCCCCCCCCCCCCCCC)CCCCCCCCCCCCCCCCCC
18 | 0.435 ± 0.033 | 0.436 ± 0.033 | 0.435 ± 0.033 | 0.436 ± 0.033 | 0.436 ± 0.033 | C=CCCCCCCCCC [1-undecene] + CCCCCCCCCCCCCCCCCCC(CCCCCCCCCCCCCCCCCC)CCCCC(CCCCCCCCCCCCCCCCCC)CCCCCCCCCCCCCCCCCC
19 | 0.442 ± 0.033 | 0.446 ± 0.033 | 0.446 ± 0.033 | 0.446 ± 0.033 | 0.446 ± 0.033 | C#CCCCCCCCC [1-decyne] + CCCCCCCCCCCCCCCCCCC(CCCCCCCCCCCCCCCCCC)CCCCC(CCCCCCCCCCCCCCCCCC)CCCCCCCCCCCCCCCCCC
20 | 0.336 ± 0.035 | 0.339 ± 0.035 | 0.336 ± 0.035 | 0.331 ± 0.035 | 0.33 ± 0.035 | CCCc1ccccc1 [propylbenzene] + CCCCCCCCCCCCCCCCCCC(CCCCCCCCCCCCCCCCCC)CCCCC(CCCCCCCCCCCCCCCCCC)CCCCCCCCCCCCCCCCCC
21 | 0.392 ± 0.034 | 0.394 ± 0.034 | 0.395 ± 0.034 | 0.396 ± 0.034 | 0.398 ± 0.034 | C=CCCCCCCC [1-nonene] + CCCCCCCCCCCCCCCCCCC(CCCCCCCCCCCCCCCCCC)CCCCC(CCCCCCCCCCCCCCCCCC)CCCCCCCCCCCCCCCCCC

Row | SMILES | activity coefficient (373.15 K) | activity coefficient (388.15 K) | activity coefficient (403.15 K) | activity coefficient (418.15 K) | activity coefficient (433.15 K)
22 | C1CC[C@H]2CCCC[C@H]2C1 [cis-decahydronaphthalene] + CCCCCCCCCCCCCCCCCCC(CCCCCCCCCCCCCCCCCC)CCCCC(CCCCCCCCCCCCCCCCCC)CCCCCCCCCCCCCCCCCC | 0.268 ± 0.036 | 0.278 ± 0.036 | 0.28 ± 0.036 | 0.275 ± 0.036 | 0.279 ± 0.036
